Reference: PMC8116641 (Archives of Virology, 2021)

Tested on: influenza A virus A/Aichi/2/68 (H3N2) (Aichi (H3N2))
Assay: microbe, parasite or virus in culture
Format: cell-based
Conditions: Influenza A virus, H3N2, MDCK, read-out: IC50 (50% inhibitory concentration)

## CC1(C)[C@H]2CC[C@]1(C)[C@H](OC(=O)C[N+](C)(C)C)C2.[I-] [10a, N,N,N-Trimethyl-2-oxo-2-((1S,2R,4S)-1,7,7-trimethylbicyclo[2.2.1]heptan-2-yloxy)ethanaminium iodide]
  IC50: 16.8 µM
